Test results reported in US10683290B2, “Tricyclic compounds as anticancer agents” (BRISTOL-MYERS SQUIBB COMPANY, priority 2015, dated 2020).

target: BRD4 (Homo sapiens, UniProt O60885); experiment: biochemical; assay type: binding; settings: FRET BRD4 IC50 (nM), one of the FRET assays described

In the case of Cc1nnn(C)c1-c1ccc2c3ncc(C(C)(C)O)cc3n([C@H](c3ccccc3F)C3CCOCC3)c2c1 [Example 9, 2-[7-(dimethyl-1H-1,2,3-triazol-5-yl)-5-[(S)-(2-fluorophenyl)(oxan-4-yl)methyl]-5H-pyrido[3,2-b]indol-3-yl]propan-2-ol], the IC50 is reported as under 5 nM.

same assay, conditions: one of the FRET assays described; read-out: FRET BRD4 IC50

Cc1ccc2c(n1)c1ccc(-c3c(C)noc3C)cc1n2Cc1ccccc1 [Example 2, 4-{5-Benzyl-2-methyl-5H-pyrido[3,2-b]indol-7-yl}-3,5-dimethyl-1,2-oxazole] and Cc1noc(C)c1-c1ccc2c3ncc(C(C)(C)O)cc3n([C@H](c3ccccc3F)C3CCOCC3)c2c1 [Example 15, 2-[7-(Dimethyl-1,2-oxazol-4-yl)-5-[(S)-(2-fluorophenyl)(oxan-4-yl)methyl]-5H-pyrido[3,2-b]indol-3-yl]propan-2-ol] cannot be ordered by IC50: under 1500 nM for the first, under 5 nM for the second.

[2H]C([2H])([2H])c1nnn(C)c1-c1cc2c(cc1F)c1ncc(C(C)(C)O)cc1n2C(c1ccccn1)C1CCOCC1 (single isomer, unassigned) [Example 37, 2-{8-fluoro-7-[4-(^2H3)methyl-1-methyl-1H-1,2,3-triazol-5-yl}-5-[oxan-4-yl(pyridin-2-yl)methyl]-5H-pyrido[3,2-b]indol-3-yl]propan-2-ol] and [2H]C([2H])([2H])c1nnn(C)c1-c1cc2c(cc1Cl)c1ncc(C(C)(C)O)cc1n2C(c1ccccn1)C1CCOCC1 (single isomer, unassigned) [Example 81, 2-{8-chloro-7-[4-(^2H3)methyl-1-methyl-1H-1,2,3-triazol-5-yl]-5-[oxan-4-yl(pyridin-2-yl)methyl]-5H-pyrido[3,2-b]indol-3-yl}propan-2-ol] cannot be ordered by IC50: under 5 nM for the first, under 1500 nM for the second.

[2H]C([2H])([2H])c1nnn(C)c1-c1cc2c(cc1F)c1ncc(C(C)(C)O)cc1n2C(c1cc(C)on1)C1CCOCC1 (stereo not drawn) [Example 34, 2-{8-Fluoro-5-[(5-methyl-1,2-oxazol-3-yl)(oxan-4-yl)methyl]-7-[4-(^2H3)methyl-1-methyl-1H-1,2,3-triazol-5-yl]-5H-pyrido[3,2-b]indol-3-yl}propan-2-ol] and [2H]C([2H])([2H])c1nnn(C)c1-c1cc2c(cc1F)c1ncc(C(C)(C)O)cc1n2C(c1cc(C)ccn1)C1CCOCC1 (single isomer, unassigned) [Example 52, 2-{8-fluoro-7-[4-(^2H3)methyl-1-methyl-1H-1,2,3-triazol-5-yl]-5-[(4-methylpyridin-2-yl)(oxan-4-yl)methyl]-5H-pyrido[3,2-b]indol-3-yl}propan-2-ol] cannot be ordered by IC50: under 1 nM for the first, under 5 nM for the second.

[2H]C([2H])([2H])c1nnn(C)c1-c1cc2c(cc1F)c1ncc(C(C)(C)O)cc1n2C(c1ncccc1C)C1CCOCC1 (single isomer, unassigned) [Example 43, 2-{8-fluoro-7-[4-(^2H3)methyl-1-methyl-1H-1,2,3-triazol-5-yl]-5-[(3-methylpyridin-2-yl)(oxan-4-yl)methyl}-5H-pyrido[3,2-b]indol-3-yl]propan-2-ol] and [2H]C([2H])([2H])c1nnn(C)c1-c1cc2c(cc1Cl)c1ncc(C(C)(C)O)cc1n2C(c1ncccc1F)C1CCOCC1 (single isomer, unassigned) [Example 76, 2-{8-Chloro-5-[(3-fluoropyridin-2-yl)(oxan-4-yl)methyl]-7-[4-(^2H3)methyl-1-methyl-1H-1,2,3-triazol-5-yl]-5H-pyrido[3,2-b]indol-3-yl}propan-2-ol] cannot be ordered by IC50: under 5 nM for the first, under 1500 nM for the second.

[2H]C([2H])([2H])c1nnn(C)c1-c1cc2c(cc1F)c1ncc(C(C)(C)O)cc1n2C(c1ncccn1)C1CCOCC1 (single isomer, unassigned) [Example 46] and Cc1nnn(C)c1-c1cc2c(cc1F)c1ncc(C(C)(C)O)cc1n2C(c1ncccn1)C1CCOCC1 (single isomer, unassigned) [Example 55] cannot be ordered by IC50: under 5 nM for the first, under 1500 nM for the second.

[2H]C([2H])([2H])c1nnn(C)c1-c1cc2c(cc1F)c1ncc(C(C)(C)O)cc1n2C(c1ccccn1)C1CCOCC1 (single isomer, unassigned) [Example 36, 2-{8-fluoro-7-[4-(^2H3)methyl-1-methyl-1H-1,2,3-triazol-5-yl}-5-[oxan-4-yl(pyridin-2-yl)methyl]-5H-pyrido[3,2-b]indol-3-yl]propan-2-ol] and [2H]C([2H])([2H])c1nnn(C)c1-c1cc2c(cc1F)c1ncc(C(C)(C)O)cc1n2C(c1cc(C)ccn1)C1CCOCC1 (single isomer, unassigned) [Example 53, 2-{8-fluoro-7-[4-(^2H3)methyl-1-methyl-1H-1,2,3-triazol-5-yl]-5-[(4-methylpyridin-2-yl)(oxan-4-yl)methyl]-5H-pyrido[3,2-b]indol-3-yl}propan-2-ol] cannot be ordered by IC50: under 1 nM for the first, under 1500 nM for the second.

[2H]C([2H])([2H])c1nnn(C)c1-c1cc2c(cc1F)c1ncc(C(C)(C)O)cc1n2C(c1ccc(F)cn1)C1CCOCC1 (single isomer, unassigned) [Example 44, 2-{8-fluoro-5-[(5-fluoropyridin-2-yl)(oxan-4-yl)methyl}-7-[4-(^2H3)methyl-1-methyl-1H-1,2,3-triazol-5-yl]-5H-pyrido[3,2-b]indol-3-yl]propan-2-ol] and [2H]C([2H])([2H])c1nnn(C)c1-c1cc2c(cc1F)c1ncc(C(C)(C)O)cc1n2[C@H](c1ccccc1F)C1CCOCC1 [Example 22, 2-{8-Fluoro-5-[(S)-(2-fluorophenyl)(oxan-4-yl)methyl]-7-[4-(^2H3)methyl-1-methyl-1H-1,2,3-triazol-5-yl]-5H-pyrido[3,2-b]indol-3-yl}propan-2-ol] cannot be ordered by IC50: under 1500 nM for the first, under 1 nM for the second.

[2H]C([2H])([2H])c1nnn(C)c1-c1cc2c(cc1F)c1ncc(C(C)(C)O)cc1n2C(c1ccccc1)C1COC1 (single isomer, unassigned) [Example 67, 2-{8-fluoro-7-[4-(^2H3)methyl-1-methyl-1H-1,2,3-triazol-5-yl]-5-[oxetan-3-yl(phenyl)methyl]-5H-pyrido[3,2-b]indol-3-yl}propan-2-ol] and [2H]C([2H])([2H])c1nnn(C)c1-c1cc2c(cc1F)c1ncc(C(C)(C)O)cc1n2C(c1ncccc1C)C1CCOCC1 (single isomer, unassigned) [Example 42, 2-{8-fluoro-7-[4-(^2H3)methyl-1-methyl-1H-1,2,3-triazol-5-yl]-5-[(3-methylpyridin-2-yl)(oxan-4-yl)methyl}-5H-pyrido[3,2-b]indol-3-yl]propan-2-ol] cannot be ordered by IC50: under 5 nM for the first, under 5 nM for the second.

[2H]C([2H])([2H])c1nnn(C)c1-c1cc2c(cc1F)c1ncc(C(C)(C)O)cc1n2C(c1cc(OC)ccn1)C1CCOCC1 (single isomer, unassigned) [Example 50, 2-{8-fluoro-5-[(4-methoxypyridin-2-yl)(oxan-4-yl)methyl]-7-[4-(^2H3)methyl-1-methyl-1H-1,2,3-triazol-5-yl]-5H-pyrido[3,2-b]indol-3-yl}propan-2-ol] and [2H]C([2H])([2H])c1nnn(C)c1-c1cc2c(cc1F)c1ncc(C(C)(C)O)cc1n2C(c1cc(C)on1)C1CCOCC1 (stereo not drawn) [Example 35, 2-{8-Fluoro-5-[(5-methyl-1,2-oxazol-3-yl)(oxan-4-yl)methyl]-7-[4-(^2H3)methyl-1-methyl-1H-1,2,3-triazol-5-yl]-5H-pyrido[3,2-b]indol-3-yl}propan-2-ol] cannot be ordered by IC50: under 5 nM for the first, under 1500 nM for the second.

Cc1nnn(C)c1-c1ccc2c3ncc(C(C)(C)O)cc3n(C(CCC(F)(F)F)c3ccccn3)c2c1 (single isomer, unassigned) [Example 6, 2-[7-(dimethyl-1H-1,2,3-triazol-5-yl)-5-[4,4,4-trifluoro-1-(pyridin-2-yl)butyl]-5H-pyrido[3,2-b]indol-3-yl]propan-2-ol] and [2H]C([2H])([2H])c1nnn(C)c1-c1ccc2c3ncc(C(C)(C)O)cc3n(C(c3ncccc3F)C3CCOCC3)c2c1 (single isomer, unassigned) [Example 72, 2-{5-[(3-Fluoropyridin-2-yl)(oxan-4-yl)methyl]-7-[4-(^2H3)methyl-1-methyl-1H-1,2,3-triazol-5-yl]-5H-pyrido[3,2-b]indol-3-yl}propan-2-ol] cannot be ordered by IC50: under 5 nM for the first, under 1 nM for the second.

[2H]C([2H])([2H])c1nnn(C)c1-c1ccc2c3ncc(C(C)(C)O)cc3n(C(c3cc(C)on3)C3CCOCC3)c2c1 (single isomer, unassigned) [Example 74, 2-{5-[(5-methyl-1,2-oxazol-3-yl)(oxan-4-yl)methyl]-7-[4-(^2H3)methyl-1-methyl-1H-1,2,3-triazol-5-yl]-5H-pyrido[3,2-b]indol-3-yl}propan-2-ol] and [2H]C([2H])([2H])c1nnn(C)c1-c1ccc2c3ncc(C(C)(C)O)cc3n(C(c3ncccc3F)C3CCOCC3)c2c1F (single isomer, unassigned) [Example 85, 2-{6-Fluoro-5-[(3-fluoropyridin-2-yl)(oxan-4-yl)methyl]-7-[4-(^2H3)methyl-1-methyl-1H-1,2,3-triazol-5-yl]-5H-pyrido[3,2-b]indol-3-yl}propan-2-ol] cannot be ordered by IC50: under 1500 nM for the first, under 5 nM for the second.

Cc1nnn(C)c1-c1cc(F)c2c3ncc(C(C)(C)O)cc3n([C@H](c3ccccc3)C3CCOCC3)c2c1 [Example 11, 2-[7-(Dimethyl-1H-1,2,3-triazol-5-yl)-9-fluoro-5-[(S)-oxan-4-yl(phenyl)methyl]-5H-pyrido[3,2-b]indol-3-yl]propan-2-ol] and Cc1nnn(C)c1-c1ccc2c3ncc(C(C)(C)O)cc3n([C@H](c3ccccc3)C3CCOCC3)c2c1F [Example 20, 2-[7-(Dimethyl-1H-1,2,3-triazol-5-yl)-6-fluoro-5-[(S)-oxan-4-yl(phenyl)methyl]-5H-pyrido[3,2-b]indol-3-yl]propan-2-ol] cannot be ordered by IC50: under 1 nM for the first, under 5 nM for the second.

[2H]C([2H])([2H])c1nnn(C)c1-c1ccc2c3ncc(C(C)(C)O)cc3n(C(c3cc(C)on3)C3CCOCC3)c2c1 (single isomer, unassigned) [Example 73, 2-{5-[(5-methyl-1,2-oxazol-3-yl)(oxan-4-yl)methyl]-7-[4-(^2H3)methyl-1-methyl-1H-1,2,3-triazol-5-yl]-5H-pyrido[3,2-b]indol-3-yl}propan-2-ol] and Cc1noc(C)c1-c1cc2c(cc1F)c1ncc(C(C)(C)O)cc1n2[C@H](c1ccccc1)C1CCOCC1 [Example 18, 2-[7-(dimethyl-1,2-oxazol-4-yl)-8-fluoro-5-[(S)-oxan-4-yl(phenyl)methyl]-5H-pyrido[3,2-b]indol-3-yl]propan-2-ol] cannot be ordered by IC50: under 5 nM for the first, under 5 nM for the second.
